This test addresses RIPK1 (recombinant GST-RIPK1 kinase domain, residues 1-327) (Homo sapiens (Human), UniProt Q13546). The experiment in a line: RIPK1-ADP-Glo Enzymatic Assay. The note with it: 25 nM GST-RIPK1, 300 μM ATP, 3 μM dephosphorylated-MBP; 30 minutes pre-incubation, 150 minutes reaction; ten-point titration. Type of test: biochemical. A digest of the protocol: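 GST-tagged RIPK1 (25 nM) was preincubated 30 min with compound at ambient temperature in HEPES pH 7.3 buffer, then run 150 min with 300 μM ATP and 3 μM dephosphorylated MBP. ADP was read by ADP-Glo luminescence. EC50 came from 10-point, 1:3 titrations (top 100000 nM, 1% DMSO) fitted to a four-parameter model.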
For orientation: ADP-Glo turns the ADP formed in a reaction into a luminescent signal.
RIPK1 (recombinant GST-RIPK1 kinase domain, residues 1-327), sequence (Q13546 1-327): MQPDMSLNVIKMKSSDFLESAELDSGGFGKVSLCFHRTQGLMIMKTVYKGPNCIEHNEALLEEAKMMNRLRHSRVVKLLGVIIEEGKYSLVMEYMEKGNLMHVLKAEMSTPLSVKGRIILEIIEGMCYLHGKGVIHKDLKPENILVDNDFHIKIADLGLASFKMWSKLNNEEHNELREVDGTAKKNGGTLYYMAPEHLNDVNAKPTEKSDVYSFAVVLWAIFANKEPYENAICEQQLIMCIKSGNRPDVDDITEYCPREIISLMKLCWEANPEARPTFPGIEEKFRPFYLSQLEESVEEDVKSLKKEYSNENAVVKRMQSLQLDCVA
In the case of `CC(F)(F)C(C)(C)C(=O)N1C[C@@H]2C[C@H]1c1cccc(F)c1O2` [Compound 2-12, 3,3-difluoro-1-[(2S,5S)-9-fluoro-2,3-dihydro-2,5-methano-1,4-benzoxazepin-4(5H)-yl]-2,2-dimethylbutan-1-one], the IC50 is 20 nM. `CC(F)(F)C(C)(C)C(=O)N1C[C@@H]2C[C@H]1c1cc(F)ccc1O2` [Compound 2-13, 3,3-difluoro-1-[(2S,5S)-7-fluoro-2,3-dihydro-2,5-methano-1,4-benzoxazepin-4(5H)-yl]-2,2-dimethylbutan-1-one]: the IC50 is 23 nM. With `O=C(N1C[C@@H]2C[C@H]1c1cc(F)ccc1O2)C12CCC(CC1)C2` [Compound 2-14, (bicyclo[2.2.1]heptan-1-yl)[(2S,5S)-7-fluoro-2,3-dihydro-2,5-methano-1,4-benzoxazepin-4(5H)-yl]methanone], the IC50 was 15 nM. Then `O=C(N1C[C@@H]2C[C@H]1c1cccc(F)c1O2)C12CCC(CC1)C2` [Compound 2-15, (bicyclo[2.2.1]heptan-1-yl)[(2S,5S)-9-fluoro-2,3-dihydro-2,5-methano-1,4-benzoxazepin-4(5H)-yl]methanone], with 24 nM; and `CC(F)(F)C(C)(C)C(=O)N1C[C@@H]2C[C@H]1c1ccc(Cl)cc1O2` [Compound 2-16, 1-((2S,5S)-8-chloro-2,3-dihydro-2,5-methanobenzo[f][1,4]oxaze-pin-4(5H)-yl)-3,3-difluoro-2,2-dimethylbutan-1-one], with 35 nM; and `CC(C)(C(=O)N1C[C@@H]2C[C@H]1c1cccc(C#N)c1O2)C(F)F` [Compound 2-19, (2S,5S)-4-(3,3-difluoro-2,2-dimethylpropanoyl)-2,3,4,5-tetrahydro-2,5-methano-1,4-benzoxazepine-9-carbonitrile], with 18 nM.

In the case of `CC(C)(C(=O)N1C[C@@H]2C[C@H]1c1cccc(Cl)c1O2)C(F)F` [Compound 2-20, 1-[(2S,5S)-9-chloro-2,3-dihydro-2,5-methano-1,4-benzoxazepin-4(5H)-yl]-3,3-difluoro-2,2-dimethylpropan-1-one], the IC50 is 52 nM. In the case of `CC(C)(C(=O)N1C[C@@H]2C[C@H]1c1ccc(Cl)cc1O2)C(F)F` [Compound 2-21, 1-[(2S,5S)-8-chloro-2,3-dihydro-2,5-methano-1,4-benzoxazepin-4(5H)-yl]-3,3-difluoro-2,2-dimethylpropan-1-one], the IC50 turned out to be 37 nM. Then `CC(C)(C(=O)N1C[C@@H]2C[C@H]1c1ccc(C#N)cc1O2)C(F)F` [Compound 2-22, (2S,5S)-4-(3,3-difluoro-2,2-dimethylpropanoyl)-2,3,4,5-tetrahydro-2,5-methano-1,4-benzoxazepine-8-carbonitrile], with 388 nM; and `CC(C)(CC#N)C(=O)N1C[C@@H]2C[C@H]1c1ccc(Cl)cc1O2` [Compound 2-23, 4-((2S,5S)-8-chloro-2,3-dihydro-2,5-methanobenzo[f][1,4]oxaze-pin-4(5H)-yl)-3,3-dimethyl-4-oxobutanenitrile], with 49 nM; and `CC(C)(C(=O)N1C[C@@H]2C[C@H]1c1cc(F)cc(Cl)c1O2)C(F)F` [Compound 2-24, 1-[(2S,5S)-9-chloro-7-fluoro-2,3-dihydro-2,5-methano-1,4-benzoxazepin-4(5H)-yl]-3,3-difluoro-2,2-dimethylpropan-1-one], with 30 nM.

Take `N#Cc1cc(F)cc2c1O[C@H]1C[C@@H]2N(C(=O)C23CCC(F)(CC2)C3)C1` [Compound 2-25, (2S,5S)-7-fluoro-4-(4-fluorobicyclo[2.2.1]heptane-1-carbonyl)-2,3,4,5-tetrahydro-2,5-methano-1,4-benzoxazepine-9-carbonitrile]: the IC50 worked out at 10 nM. Regarding `CC(C)(C(=O)N1C[C@@H]2C[C@H]1c1cc(F)cc(F)c1O2)C(F)F` [Compound 2-26, 1-[(2S,5S)-7,9-difluoro-2,3-dihydro-2,5-methano-1,4-benzoxazepin-4(5H)-yl]-3,3-difluoro-2,2-dimethylpropan-1-one], the IC50 amounted to 12 nM. As to `CC(C)(CC#N)C(=O)N1C[C@@H]2C[C@H]1c1cc(F)cc(F)c1O2` [Compound 2-27, 4-[(2S,5S)-7,9-difluoro-2,3-dihydro-2,5-methano-1,4-benzoxazepin-4(5H)-yl]-3,3-dimethyl-4-oxobutanenitrile], the half-inhibitory concentration (IC50) is 16 nM. Consider `N#CCC1(C(=O)N2C[C@@H]3C[C@H]2c2cccc(F)c2O3)CCC1` [Compound 2-28, {1-[(2S,5S)-9-fluoro-2,3-dihydro-2,5-methano-1,4-benzoxazepine-4(5H)-carbonyl]cyclobutyl} acetonitrile], for which the IC50 was 809 nM. Turning to `CC1(C(=O)N2C[C@@H]3C[C@H]2c2cc(F)ccc2O3)CC(C#N)C1` (stereo partly drawn) [Compound 2-29, 3-((2S,5S)-7-fluoro-2,3,4,5-tetrahydro-2,5-methanobenzo[f][1,4]oxaze-pine-4-carbonyl)-3-methylcyclobutane-1-carbonitrile], the IC50 was found to be 55 nM.

As to `CC1(C(=O)N2C[C@@H]3C[C@H]2c2cccc(F)c2O3)CC(C#N)C1` (stereo partly drawn) [Compound 2-30, 3-((2S,5S)-9-fluoro-2,3,4,5-tetrahydro-2,5-methanobenzo[f][1,4]oxaze-pine-4-carbonyl)-3-methylcyclobutane-1-carbonitrile], the IC50 was 75 nM. Consider `C[C@@H]1[C@@H]2C[C@@H](c3ccccc3O2)N1C(=O)C(C)(C)C` [Compound 2-31, 2,2-dimethyl-1-((2S,3R,5S)-3-methyl-2,3-dihydro-2,5-methanobenzo[f][1,4]oxaze-pin-4(5H)-yl)propan-1-one], for which the IC50 worked out at 132 nM.

For the molecule `O=C(N1C[C@@H]2C[C@H]1c1cc(Cl)ccc1O2)C12CCC(F)(CC1)C2` [Compound 2-32, ((2S,5S)-7-chloro-2,3-dihydro-2,5-methanobenzo[f][1,4]oxaze-pin-4(5H)-yl)(4-fluorobicyclo[2.2.1]heptan-1-yl)methanone], the IC50 came to 39 nM. On to `O=C(N1C[C@@H]2C[C@H]1c1ccc(Cl)cc1O2)C12CCC(F)(CC1)C2` [Compound 2-33, ((2S,5S)-8-chloro-2,3-dihydro-2,5-methanobenzo[f][1,4]oxaze-pin-4(5H)-yl)(4-fluorobicyclo[2.2.1]heptan-1-yl)methanone], for which the IC50 came out at 26 nM. With `N#Cc1ccnc(N2CCC(F)(C(=O)N3C[C@@H]4C[C@H]3c3cc(F)cc(F)c3O4)CC2)n1` [Compound 2-34, 2-(4-((2S,5S)-7,9-difluoro-2,3,4,5-tetrahydro-2,5-methanobenzo[f][1,4]oxaze-pine-4-carbonyl)-4-fluoropiperidin-1-yl)pyrimidine-4-carbonitrile], the IC50 stood at 27 nM. Regarding `O=C(N1C[C@@H]2C[C@H]1c1cc(F)cc(F)c1O2)C12CCC(F)(CC1)C2` [Compound 2-35, ((2S,5S)-7,9-difluoro-2,3-dihydro-2,5-methanobenzo[f][1,4]oxaze-pin-4(5H)-yl)(4-fluorobicyclo[2.2.1]heptan-1-yl)methanone], the 50% inhibitory concentration (IC50) turned out to be 12 nM. Take `N#CC12CCC(C(=O)N3C[C@@H]4C[C@H]3c3cc(F)cc(F)c3O4)(C1)C2` [Compound 2-36, 4-((2S,5S)-7,9-difluoro-2,3,4,5-tetrahydro-2,5-methanobenzo[f][1,4]oxaze-pine-4-carbonyl)bicyclo[2.1.1] hexane-1-carbonitrile]: the IC50 stood at 19 nM. Next, `CC(C)(C)C(=O)N1C[C@H]2Cc3ccccc3[C@@H]1C2` [Compound 3-2, 2,2-dimethyl-1-((1S,4S)-1,3,4,5-tetrahydro-2H-1,4-methanobenzo[c]azepin-2-yl)propan-1-one]: 2240 nM; `CC(C)(CC#N)C(=O)N1C[C@H]2Cc3ccccc3[C@@H]1C2` [Compound 3-3, 3,3-dimethyl-4-oxo-4-((1S,4S)-1,3,4,5-tetrahydro-2H-1,4-methanobenzo[c]azepin-2-yl)butanenitrile]: 1490 nM. With `CC(C)(C)C(=O)N1C[C@]2(C)C[C@H]1c1ccccc1O2` [Compound 3-5, 2,2-dimethyl-1-((2S,5S)-2-methyl-2,3-dihydro-2,5-methanobenzo[f][1,4]oxaze-pin-4(5H)-yl)propan-1-one], the IC50 came out at 17800 nM. Consider `CC(C)(C(=O)N1C[C@]2(C)C[C@H]1c1ccccc1O2)C(F)F` [Compound 3-6, 3,3-difluoro-2,2-dimethyl-1-((2S,5S)-2-methyl-2,3-dihydro-2,5-methanobenzo[f][1,4]oxaze-pin-4(5H)-yl)propan-1-one], for which the IC50 was 14700 nM.

What is called IC50 is the point on the concentration scale where inhibition reaches its midpoint.

The record behind these values is patent US20240208986A1, “PHENYL AZEPINES AS RIPK1 INHIBITORS AND METHODS OF USE THEREOF” (Merck Sharp & Dohme LLC, priority 2021, published 2024).
